Measured values taken from US9765075B2, “Substituted bridged urea analogs as sirtuin modulators” (GLAXOSMITHKLINE LLC, priority 2013, dated 2017).
Residue numbers refer to the chain shown, from its start. Where a name gives a salt, the structure may show the parent alone.

Legend:
Test in all cases: SIRT1 inhibition assay, OAcADPr mass spectrometry
Format in all cases: biochemical
full-length hSIRT1 V224A = target: T1, full-length hSIRT1 V224A (Homo sapiens, UniProt Q96EB6, V224A)
T1 construct: The following point mutants of full-length hSIRT1 were generated; His6 (C); made in house
T1 sequence (Q96EB6 1-747 V224A): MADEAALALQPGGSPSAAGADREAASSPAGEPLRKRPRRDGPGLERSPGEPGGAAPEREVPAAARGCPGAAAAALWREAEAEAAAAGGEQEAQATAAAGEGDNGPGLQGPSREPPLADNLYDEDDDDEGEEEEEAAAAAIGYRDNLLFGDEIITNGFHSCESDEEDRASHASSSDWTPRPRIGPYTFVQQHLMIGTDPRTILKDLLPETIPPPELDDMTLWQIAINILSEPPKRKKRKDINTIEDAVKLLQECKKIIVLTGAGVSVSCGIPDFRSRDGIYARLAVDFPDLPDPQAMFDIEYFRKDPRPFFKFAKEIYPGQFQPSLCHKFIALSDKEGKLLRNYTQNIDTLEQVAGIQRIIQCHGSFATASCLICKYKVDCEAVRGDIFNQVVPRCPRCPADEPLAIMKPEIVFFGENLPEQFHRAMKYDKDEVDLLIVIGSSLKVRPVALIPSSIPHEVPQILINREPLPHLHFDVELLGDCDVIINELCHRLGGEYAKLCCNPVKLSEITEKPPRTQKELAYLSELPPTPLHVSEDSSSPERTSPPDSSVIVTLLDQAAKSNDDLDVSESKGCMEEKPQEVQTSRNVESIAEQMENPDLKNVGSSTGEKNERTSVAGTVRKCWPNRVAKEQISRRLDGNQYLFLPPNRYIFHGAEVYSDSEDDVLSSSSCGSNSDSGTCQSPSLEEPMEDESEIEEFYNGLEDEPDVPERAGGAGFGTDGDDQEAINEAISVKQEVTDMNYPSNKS
Experimental: (§1) SIRT1 activation and inhibition assays were run in reaction buffer with 0.05% BSA at 25° C. and analyzed using the OAcADPr assay. Enzyme and compound were pre-incubated for 20 minutes before addition of substrates.

full-length hSIRT1 Q222A = target: T2, full-length hSIRT1 Q222A (Homo sapiens, UniProt Q96EB6, Q222A)
T2 construct: The following point mutants of full-length hSIRT1 were generated; made in house
T2 sequence (Q96EB6 1-747 Q222A): T1 sequence (Q96EB6 1-747 V224A) with Q222A, A224V
Experimental: as §1

full-length hSIRT1 N226A = target: T3, full-length hSIRT1 N226A (Homo sapiens, UniProt Q96EB6, N226A)
T3 construct: The following point mutants of full-length hSIRT1 were generated; His6 (C); made in house
T3 sequence (Q96EB6 1-747 N226A): T1 sequence (Q96EB6 1-747 V224A) with A224V, N226A
Experimental: as §1

CCCC[C@H](NC(=O)[C@H](CC(C)C)NC(=O)[C@H](CCCCNC(=O)C(F)(F)F)NC(=O)[C@H](CCCCN)NC(=O)[C@H](Cc1c[nH]cn1)NC(=O)[C@H](CCCNC(=N)N)NC(C)=O)C(=O)N[C@@H](Cc1ccccc1)C(N)=O [TFA-p53 7-mer, Ac-RHK-K^TFA-L-Nle-F-NH2] was tested. Which IC50 (full-length hSIRT1 V224A) did it give?
The IC50 was 860 ± 80 nM.

What about the IC50 (full-length hSIRT1 Q222A) of the same compound?
Its IC50 is 630 ± 50 nM.

And the IC50 (full-length hSIRT1 N226A)?
The IC50 was 350 ± 40 nM.
